Test system: sensory neurons
Assay: Capsaicin-evoked iCGRP release from sensory neurons after ionizing radiation
Assay type: cell-based, rat
Procedure: EXAMPLE. Cell Cultures. Neuronal cultures were prepared from adult male (150-175 g) Sprague-Dawley rats (Harlan, Indianapolis, Ind.) as described in the published literature. Briefly, hippocampal cells were dissociated using papain and mechanical agitation and separated by gradient centrifugation. The pellet of cells from a discontinuous gradient of Optiprep in L-15 media was washed then resuspended in 1 mL of growth media consisting of Neurobasal Medium supplemented with 0.5 mM L-glutamine, 2% B-27 Supplement minus AO, 50 mg/mL Penicillin-Streptomycin, and 5 ng/mL of Basic Fibroblast Growth Factor (BFGF). Approximately 60,000 cells were plated onto poly-D-lysine and laminin coated plates and grown for 6-14 days in 5% CO2 at 37° C. Growth medium was changed every other day. For sensory neuronal culture, cells were dissociated using collagenase and mechanical dissociation. Approximately 30,000 DRG cells were plated into each well of 12 well culture plates or onto Lab-Tek chamber slides all precoated with poly-D-lysine and laminin. […]
For release studies, the sensory neuronal cultures were washed once with HEPES buffer consisting of (in mM) 25 HEPES, 135 NaCl, 3.5 KCl, 2.5 CaCl2, 1 MgCl2, 3.3 D-glucose, and 0.1% bovine serum albumin, pH 7.4 and maintained at 37° C. […] After each incubation, the buffer was removed and the amount of CGRP in each sample was measured using radioimmunoassay as previously described. […] Total content was calculated by adding the total amount released in all incubations to the amount measured in the cells. The release data is calculated as fmol released/well/[…] or as a % of the total peptide content in the cells. […]
EXAMPLE. […] For these studies, the initially determined effects of exposing neuronal cultures to single or multiple doses of 10 Gy of IR on the content and release of iCGRP. 24 h after exposing sensory neurons to either one or two once-daily doses of 10 Gy, there was no significant effect on resting or capsaicin-evoked iCGRP release (as measured in fmol released/well of cells/10 min) or on the total content of CGRP in the cultures. […]

Question: How did the “capsaicin-evoked iCGRP release after radiation” value (10 μM or 20 μM E3330, 3 doses of 10 Gy, 30 nM capsaicin, 24 h after last dose) turn out when CCCCCCCCC/C(=C\C1=C(C)C(=O)C(OC)=C(OC)C1=O)C(=O)O [Example 28] was run?
Answer: completely blocked the effects of radiation on peptide release

Question: What about the “capsaicin-evoked iCGRP release in control cells” value (10 μM or 20 μM E3330, no radiation, 30 nM capsaicin) of the same compound?
Answer: did not alter capsaicin-evoked release in control cells

Question: And the “evoked release of iCGRP” value (20 μM E3330, APE1 knock-down and 266-177 overexpression, 10 Gy per day for three days)?
Answer: 5.9±0.5 % of total content
